Results from patent US20210101928A1 (Sage Therapeutics, Inc., priority 2017, published 2021).

Target: GABAA receptor ([35S]-TBPS binding, rat brain cortical membranes)
Assay: Steroid inhibition of [35S]-TBPS binding
Settings: Table I-1, 3 nM [35S]-TBPS, in the presence of 5 mM GABA, read-out: TBPS binding IC50
Method: [^35S]-t-Butylbicyclophosphorothionate (TBPS) binding assays using rat brain cortical membranes in the presence of 5 mM GABA has been described (Gee et al, J. Pharmacol. Exp. Ther. 1987, 241, 346-353; Hawkinson et al, Mol. Pharmacol. 1994, 46, 977-985; Lewin, A. H et al., Mol. Pharmacol. 1989, 35, 189-194).
Briefly, cortices are rapidly removed following decapitation of carbon dioxide-anesthetized Sprague-Dawley rats (200-250 g). The cortices are homogenized in 10 volumes of ice-cold 0.32 M sucrose using a glass/teflon homogenizer and centrifuged at 1500×g for 10 min at 4° C. The resultant supernatants are centrifuged at 10,000×g for 20 min at 4° C. to obtain the P2 pellets. The P2 pellets are resuspended in 200 mM NaCl/50 mM Na—K phosphate pH 7.4 buffer and centrifuged at 10,000×g for 10 min at 4° C. This washing procedure is repeated twice and the pellets are resuspended in 10 volumes of buffer. Aliquots ([…]) of the membrane suspensions are incubated with 3 nM [^35S]-TBPS and […] aliquots of test drug dissolved in dimethyl sulfoxide (DMSO) (final 0.5%) in the presence of 5 mM GABA. The incubation is brought to a final volume of 1.0 mL with buffer. Nonspecific binding is determined in the presence of […] and ranged from 15 to 25%. Following a 90 min incubation at room temp, the assays are terminated by filtration through glass fiber filters (Schleicher and Schuell No. 32) using a cell harvester (Brandel) and rinsed three times with ice-cold buffer. Filter bound radioactivity is measured by liquid scintillation spectrometry. Non-linear curve fitting of the overall data for each drug averaged for each concentration is done using Prism (GraphPad). […] The concentration of test compound producing 50% inhibition (IC50) of specific binding and the maximal extent of inhibition (Imax) are determined for the individual experiments with the same model used for the overall data and then the means±SEM.s of the individual experiments are calculated.
Various compounds are or can be screened to determine their potential as modulators of [^35S]-TBPS binding in vitro. These assays are or can be performed in accordance with the above.

Structure (SMILES) | IC50
C[C@@]1(O)CC[C@]2(C)[C@H]3CC[C@]4(C)[C@@H](C(=O)Cn5ncc6ccncc65)CC[C@H]4[C@@H]3CC[C@]2(C)C1 [I-A7, 1-((3R,5R,8S,9S,10R,13S,14S,17S)-3-hydroxy-3,5,10,13-tetramethylhexadecahydro-1H-cyclopenta[a]phenanthren-17-yl)-2-(1H-pyrazolo[3,4-c]pyridin-1-yl)ethan-1-one] | 100 to 1000 nM
CN(CC(=O)[C@H]1CC[C@H]2[C@@H]3CC[C@]4(C)C[C@](C)(O)CC[C@]4(C)[C@H]3CC[C@]12C)c1ccccc1 [I-A2, 1-((3R,5R,8S,9S,10R,13S,14S,17S)-3-hydroxy-3,5,10,13-tetramethylhexadecahydro-1H-cyclopenta[a]phenanthren-17-yl)-2-(methyl(phenyl)amino)ethan-1-one] | 100 to 1000 nM
Cc1nnnn1CC(=O)[C@H]1CC[C@H]2[C@@H]3CC[C@]4(C)C[C@](C)(O)CC[C@]4(C)[C@H]3CC[C@]12C [I-A8, 1-((3R,5R,8S,9S,10R,13S,14S,17S)-3-hydroxy-3,5,10,13-tetramethylhexadecahydro-1H-cyclopenta[a]phenanthren-17-yl)-2-(5-methyl-1H-tetrazol-1-yl)ethan-1-one] | 100 to 1000 nM

Same assay, conditions: Table II-2, 3 nM [35S]-TBPS, in the presence of 5 mM GABA, read-out: TBPS IC50

Structure (SMILES) | IC50
C=C[C@]12CC[C@@](C)(O)C[C@@H]1CC[C@H]1[C@@H]3CC[C@H](C(C)=O)[C@@]3(C)CC[C@@H]12 [II-A4, 1((3R,5S,8S,9S,10R,13S,14S,17S)-3-hydroxy-3,13-dimethyl-10-vinylhexadecahydro-1H-cyclopenta[a]phenanthren-17-yl)ethan-1-one] | 10 to 100 nM
CCOC[C@@]1(O)CC[C@@]2(CC)[C@H](CC[C@H]3[C@@H]4CC[C@H](C(C)=O)[C@@]4(C)CC[C@@H]32)C1 [II-C4, 1-((3R,5R,8S,9S,10S,13S,14S,17S)-3-(ethoxymethyl)-10-ethyl-3-hydroxy-13-methylhexadecahydro-1H-cyclopenta[a]phenanthren-17-yl)ethan-1-one] | 10 to 100 nM
CC[C@]12CC[C@@](C)(O)C[C@@H]1CC[C@H]1[C@@H]3CC[C@H](C(=O)CN4CCOCC4)[C@@]3(C)CC[C@@H]12 [II-A9, 1-((3R,5S,8S,9S,10S,13S,14S,17S)-10-ethyl-3-hydroxy-3,13-dimethylhexadecahydro-1H-cyclopenta[a]phenanthren-17-yl)-2-morpholinoethan-1-one] | 10 to 100 nM
CC[C@]12CC[C@@](C)(O)C[C@H]1CC[C@H]1[C@@H]3CC[C@H](C(=O)Cn4nccn4)[C@@]3(C)CC[C@@H]12 [II-13, 1-((3R,5R,8S,9S,10S,13S,14S,17S)-10-ethyl-3-hydroxy-3,13-dimethylhexadecahydro-1H-cyclopenta[a]phenanthren-17-yl)-2-(2H-1,2,3-triazol-2-yl)ethan-1-one] | < 10 nM
CO[C@H](C)[C@]12CC[C@@](C)(O)C[C@H]1CC[C@H]1[C@@H]3CC[C@H](C(=O)Cn4nnnc4C)[C@@]3(C)CC[C@@H]12 [II-E13, 1-((3R,5R,8S,9S,10R,13S,14S,17S)-3-hydroxy-10-((R)-1-methoxyethyl)-3,13-dimethylhexadecahydro-1H-cyclopenta[a]phenanthren-17-yl)-2-(5-methyl-1H-tetrazol-1-yl)ethan-1-one] | 100 to 1000 nM
CCOC[C@@]1(O)CC[C@@]2(CC)[C@@H](CC[C@H]3[C@@H]4CC[C@H](C(=O)N5CCCC[C@@H]5C)[C@@]4(C)CC[C@@H]32)C1 [II-D11, ((3R,5S,8S,9S,10S,13S,14S,17S)-3-(ethoxymethyl)-10-ethyl-3-hydroxy-13-methylhexadecahydro-1H-cyclopenta[a]phenanthren-17-yl)((S)-2-methylpiperidin-1-yl)methanone] | 100 to 1000 nM
CC[C@]12CC[C@@](C)(O)C[C@H]1CC[C@H]1[C@@H]3CC[C@H](C(N)=O)[C@@]3(C)CC[C@@H]12 [II-22, (3R,5R,8S,9S,10S,13S,14S,17S)-10-ethyl-3-hydroxy-3,13-dimethylhexadecahydro-1H-cyclopenta[a]phenanthrene-17-carboxamide] | 100 to 1000 nM
CC[C@@H]1CCCCN1C(=O)[C@H]1CC[C@H]2[C@@H]3CC[C@@H]4C[C@](C)(O)CC[C@]4(CC)[C@H]3CC[C@]12C [II-21a, ((3R,5R,8S,9S,10S,13S,14S,17S)-10-ethyl-3-hydroxy-3,13-dimethylhexadecahydro-1H-cyclopenta[a]phenanthren-17-yl)((R)-2-ethylpiperidin-1-yl)methanone] | 10 to 100 nM
CCOC[C@@]1(O)CC[C@@]2(CC)[C@H](CC[C@H]3[C@@H]4CC[C@H](C(=O)Cn5ccnn5)[C@@]4(C)CC[C@@H]32)C1 [II-76, 1-((3R,5R,8S,9S,10S,13S,14S,17S)-3-(ethoxymethyl)-10-ethyl-3-hydroxy-13-methylhexadecahydro-1H-cyclopenta[a]phenanthren-17-yl)-2-(1H-1,2,3-triazol-1-yl)ethan-1-one] | 10 to 100 nM
CC[C@]12CC[C@@](C)(O)C[C@H]1CC[C@H]1[C@@H]3CC[C@H](C(=O)Cn4ccnn4)[C@@]3(C)CC[C@@H]12 [II-13a, 1-((3R,5R,8S,9S,10S,13S,14S,17S)-10-ethyl-3-hydroxy-3,13-dimethylhexadecahydro-1H-cyclopenta[a]phenanthren-17-yl)-2-(1H-1,2,3-triazol-1-yl)ethan-1-one] | < 10 nM
CC[C@]12CC[C@](O)(COC)C[C@@H]1CC[C@H]1[C@@H]3CC[C@H](C(=O)Nc4ccc(C#N)cc4C)[C@@]3(C)CC[C@@H]12 [II-E6, (3R,5S,8S,9S,10S,13S,14S,17S)-N-(4-cyano-2-methylphenyl)-10-ethyl-3-hydroxy-3-(methoxymethyl)-13-methylhexadecahydro-1H-cyclopenta[a]phenanthrene-17-carboxamide] | < 10 nM
CC[C@]12CC[C@@](C)(O)C[C@@H]1CC[C@H]1[C@@H]3CC[C@H](C(C)=O)[C@@]3(C)CC[C@@H]12 [II-A5, 1-((3R,5S,8S,9S,10S,13S,14S,17S)-10-ethyl-3-hydroxy-3,13-dimethylhexadecahydro-1H-cyclopenta [a]phenanthren-17-yl)ethan-1-one] | 10 to 100 nM
CC[C@]12CC[C@@](C)(O)C[C@@H]1CC[C@H]1[C@@H]3CC[C@H](C(=O)Cn4ccnn4)[C@@]3(C)CC[C@@H]12 [II-A8] | < 10 nM
CCOC[C@@]1(O)CC[C@@]2(CC)[C@@H](CC[C@H]3[C@@H]4CC[C@H](C(=O)Cn5nnnc5C)[C@@]4(C)CC[C@@H]32)C1 [II-78, 1-((3R,5S,8S,9S,10S,13S,14S,17S)-3-(ethoxymethyl)-10-ethyl-3-hydroxy-13-methylhexadecahydro-1H-cyclopenta[a]phenanthren-17-yl)-2-(5-methyl-1H-tetrazol-1-yl)ethan-1-one] | 100 to 1000 nM

Same assay, conditions: Table III-1 (biological data), 3 nM [35S]-TBPS, in the presence of 5 mM GABA, read-out: TBPS IC50

Structure (SMILES) | IC50
CC[C@]12CC[C@H]3[C@@H](CC[C@@H]4C[C@](C)(O)CC[C@@H]43)[C@@H]1CC[C@@H]2C(=O)Cn1cc(C#N)cn1 [III-A10, 1-(2-((3R,5R,8R,9R,10S,13S,14S,17S)-13-ethyl-3-hydroxy-3-methylhexadecahydro-1H-cyclopenta[a]phenanthren-17-yl)-2-oxoethyl)-1H-pyrazole-4-carbonitrile] | < 10 nM
CC[C@]12CC[C@H]3[C@@H](CC[C@@H]4C[C@@](O)(COC)CC[C@@H]43)[C@@H]1CC[C@@H]2C(=O)Cn1cc(C#N)cn1 [III-B17, 1-(2-((3R,5R,8R,9R,10S,13S,14S,17S)-13-ethyl-3-hydroxy-3-(methoxymethyl)hexadecahydro-1H-cyclopenta[a]phenanthren-17-yl)-2-oxoethyl)-1H-pyrazole-4-carbonitrile] | 10 to 100 nM
CC[C@]12CC[C@H]3[C@@H](CC[C@H]4C[C@@](O)(COC)CC[C@@H]43)[C@@H]1CC[C@@H]2C(=O)Cn1nnnc1C [III-A23, 1-((3R,5S,8R,9R,10S,13S,14S,17S)-13-ethyl-3-hydroxy-3-(methoxymethyl)hexadecahydro-1H-cyclopenta[a]phenanthren-17-yl)-2-(5-methyl-1H-tetrazol-1-yl)ethan-1-one] | 100 to 1000 nM
COC[C@]12CC[C@H]3[C@@H](CC[C@@H]4C[C@](C)(O)CC[C@@H]43)[C@@H]1CC[C@@H]2C(=O)Cn1cc(C#N)cn1 [III-C13, 1-(2-((3R,5R,8R,9R,10S,13R,14S,17S)-3-hydroxy-13-(methoxymethyl)-3-methylhexadecahydro-1H-cyclopenta[a]phenanthren-17-yl)-2-oxoethyl)-1H-pyrazole-4-carbonitrile] | < 10 nM
